Source: the supplement of paper PMC11208160

Experiment: recombinant UMI read abundance after kanamycin selection (control-corrected) (log10(CPM+1)); higher = more efficient recombination; extreme values may be limits of the assay; sequences stand for … in AGTGCAGAGAAAATCGGCCAGTTTTCTCTGCCTGCAGTCCGCATGCCGTGGGACCCCTTGGGTTCTAACCTGTTGCCTAGATTTATGCAGCGGACTGCCTTTCTCCCAAAGTGATAAACCGG…AGGTTGGTTTCACT; site = the 11-nt donor
Procedure, shortened: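 In a pooled Escherichia coli screen for the IS621 bridge recombinase, donor and donor-binding-loop pairs were each placed with a 12-nt UMI on a plasmid bearing a promoterless kanamycin gene. This library was co-electroporated with a target plasmid encoding a fixed target and T7-inducible recombinase, and cells were plated either on IPTG (0.07 mM) plus kanamycin or without selection, in two replicates each. Recombinant UMIs were PCR-amplified across the donor–target junction and sequenced, and counts were converted to CPM, averaged over replicates, scaled by control-derived factors and reported as log10(CPM+1).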
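Also: IS621 bridge recombinase in Escherichia coli cells against a fixed T5 target plasmid.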

Sequence | recombinant UMI read abundance (log10)
CTTCGAGCATGGACCGGTTTTCCCGGTAATCCGTATTTGTT (site CTTCGAGCTAA) | 1.59
GTAGTAGCATGGACCGGTTTTCCCGGTAATCCGTATTTGCG (site GTAGTCGCTCG) | 0.72
TAGAGCGCATGGACCGGTTTTCCCGGTAATCCGTATTTGTG (site TAGAGCGCTCA) | 1.05
CCCTTAGCATGGACCGGTTTTCCCGGTAATCCGTATTTGTG (site CCCTTAGCTCA) | 0.0472
CGATCGTCATGGACCGGTTTTCCCGGTAATCCGTATTTGAT (site CGATCGTCTAT) | 0.972
AGAGTGTCATGGACCGGTTTTCCCGGTAATCCGTATTTGCA (site ACAGTATCTTG) | 2.56
CGCGGAACATGGACCGGTTTTCCCGGTAATCCGTATTTGTT (site CGGGGAACTAA) | 0.0138
CCCTAGACATGGACCGGTTTTCCCGGTAATCCGTATTTGGG (site GCCTAGACTCC) | 0.0233
ACAGTATCATGGACCGGTTTTCCCGGTAATCCGTATTTGCA (site AAAATATCTTG) | 1.79
GGCCACCCATGGACCGGTTTTCCCGGTAATCCGTATTTGAT (site GGCCACCCTAA) | 0.0182
ACGAAGGCATGGACCGGTTTTCCCGGTAATCCGTATTTGAC (site ACGAAGGCTGT) | 2.46
TACTTGACATGGACCGGTTTTCCCGGTAATCCGTATTTGCG (site TACTTGACTCG) | 0.524
AAATGGCCATGGACCGGTTTTCCCGGTAATCCGTATTTGCA (site AAATGGCCTTG) | 0.00935
ACAGTCACATGGACCGGTTTTCCCGGTAATCCGTATTTGCA (site ACAGTCACTTG) | 2.58
CCGTTAACATGGACCGGTTTTCCCGGTAATCCGTATTTGTG (site CCGTTAACTCA) | 0.0455
TATTTGGCATGGACCGGTTTTCCCGGTAATCCGTATTTGAG (site TATTTGGCTCG) | 0.012
CAAAGCTCATGGACCGGTTTTCCCGGTAATCCGTATTTGAA (site CAAAGCTCTTT) | 3.18
GTTCGAGCATGGACCGGTTTTCCCGGTAATCCGTATTTGCA (site GTTCGCGCTTG) | 0.00631
AGATTCTCATGGACCGGTTTTCCCGGTAATCCGTATTTGTG (site AGATTCTCTCA) | 2.63
CAAGCGCCATGGACCGGTTTTCCCGGTAATCCGTATTTGTC (site CAAGCGCCTCA) | 0.42
CTTATCTCATGGACCGGTTTTCCCGGTAATCCGTATTTGTA (site CTTTTCTCTTA) | 0.00641
CGGATTTCATGGACCGGTTTTCCCGGTAATCCGTATTTGTT (site CGGAATCCTAA) | 0
TCTGCGGCATGGACCGGTTTTCCCGGTAATCCGTATTTGTT (site TCTGCGGCTAA) | 0.0132
ACGTGAGCATGGACCGGTTTTCCCGGTAATCCGTATTTGCC (site ACGTGAGCTGG) | 2.7
GCGTGCCCATGGACCGGTTTTCCCGGTAATCCGTATTTGAT (site GCGTGCCCTAT) | 0.221

Sequence | recombinant UMI read abundance (log10)
GCGACTACATGGACCGGTTTTCCCGGTAATCCGTATTTGGC (site GCGACTACTGC) | 1.97
ACTATTCCATGGACCGGTTTTCCCGGTAATCCGTATTTGGT (site ACTATTCCTAC) | 0.00382
CAATGATCATGGACCGGTTTTCCCGGTAATCCGTATTTGAA (site CAATGATCTTT) | 3.01
CTGCCTACATGGACCGGTTTTCCCGGTAATCCGTATTTGAG (site CTACCTACTCT) | 1.04
GCAGTTACATGGACCGGTTTTCCCGGTAATCCGTATTTGGA (site GCAGTTACTTC) | 1.1
GAGCACACATGGACCGGTTTTCCCGGTAATCCGTATTTGAT (site GAGCTCACTAT) | 0
TACCACACATGGACCGGTTTTCCCGGTAATCCGTATTTGTC (site TACCACACTGA) | 2.09
CTTGCGGCATGGACCGGTTTTCCCGGTAATCCGTATTTGCT (site TTTGCGGCTAG) | 0
ACAGTATCATGGACCGGTTTTCCCGGTAATCCGTATTTGCA (site ACAGTATCTTC) | 1.17
ACAGTATCATGGACCGGTTTTCCCGGTAATCCGTATTTGCA (site AAAGTATCTAG) | 0
GGAGTGGCATGGACCGGTTTTCCCGGTAATCCGTATTTGGA (site GGAGTGGCTGC) | 0
GATTTGGCATGGACCGGTTTTCCCGGTAATCCGTATTTGTC (site GATTTGGCTGA) | 0
ACCAAGTCATGGACCGGTTTTCCCGGTAATCCGTATTTGTG (site ACCAAGTCTCA) | 2.15
CACGGCCCATGGACCGGTTTTCCCGGTAATCCGTATTTGTG (site CACGGCCCTGA) | 0
AATTGTGCATGGACCGGTTTTCCCGGTAATCCGTATTTGAC (site AATTGTGCTGT) | 2.25
GGCAATCCATGGACCGGTTTTCCCGGTAATCCGTATTTGAA (site GGCAATTCTTT) | 0
CCTGATACATGGACCGGTTTTCCCGGTAATCCGTATTTGGC (site CCTCATACTGC) | 0
CGGGTTCCATGGACCGGTTTTCCCGGTAATCCGTATTTGAC (site CGGGTTCCTGT) | 0.77
AATGTGTCATGGACCGGTTTTCCCGGTAATCCGTATTTGTC (site AATGTGTCTGA) | 2.97
CGTGCGTCATGGACCGGTTTTCCCGGTAATCCGTATTTGTA (site CGTGCGTCTTA) | 2.34
ACGAGGTCATGGACCGGTTTTCCCGGTAATCCGTATTTGAC (site ACGAGGTCTGT) | 2.91
CTAGCTGCATGGACCGGTTTTCCCGGTAATCCGTATTTGTG (site ATAGCTGCTCA) | 0.0231
CCTTGTCCATGGACCGGTTTTCCCGGTAATCCGTATTTGCG (site CCTTGTCCTCG) | 0.00291
GACTATCCATGGACCGGTTTTCCCGGTAATCCGTATTTGCT (site GAGTATCCTAG) | 0
GCGAAGCCATGGACCGGTTTTCCCGGTAATCCGTATTTGGT (site GCGAAGCCTAC) | 0.885

Sequence | recombinant UMI read abundance (log10)
CGAGTATCATGGACCGGTTTTCCCGGTAATCCGTATTTGAC (site CTAGTATCTGT) | 2.01
AATGTGTCATGGACCGGTTTTCCCGGTAATCCGTATTTGAA (site AATGTGTCTTT) | 2.11
TGAGGTGCATGGACCGGTTTTCCCGGTAATCCGTATTTGGT (site TGAGGTGCTAC) | 0.98
ACAGTATCATGGACCGGTTTTCCCGGTAATCCGTATTTGCA (site ACACTATCTTG) | 1.61
GTCGGTACATGGACCGGTTTTCCCGGTAATCCGTATTTGAC (site GTAGGTACTGT) | 0.298
GTTTGCACATGGACCGGTTTTCCCGGTAATCCGTATTTGTA (site GTCTGCACTTA) | 0.253
TTAATAGCATGGACCGGTTTTCCCGGTAATCCGTATTTGAT (site TTAATAGCTAT) | 1.76
ACCCGTCCATGGACCGGTTTTCCCGGTAATCCGTATTTGAT (site ATCCGTCCTAT) | 0.015
TAATGGCCATGGACCGGTTTTCCCGGTAATCCGTATTTGAT (site TAATGGCCTAT) | 0.00507
GTATGTTCATGGACCGGTTTTCCCGGTAATCCGTATTTGAG (site GTATGTTCTCT) | 2.52
CGTTATCCATGGACCGGTTTTCCCGGTAATCCGTATTTGCG (site CGTTATCCTCG) | 0.766
ACAGTATCATGGACCGGTTTTCCCGGTAATCCGTATTTGCA (site ACAGTATCTAC) | 0
GACGAAACATGGACCGGTTTTCCCGGTAATCCGTATTTGTA (site GACGAAACTTA) | 2.54
CTCCCTACATGGACCGGTTTTCCCGGTAATCCGTATTTGAT (site CTCCCTACTGT) | 0.137
CCCTAGCCATGGACCGGTTTTCCCGGTAATCCGTATTTGCC (site CCCTAGCCTCG) | 0.00555
CTAGCCACATGGACCGGTTTTCCCGGTAATCCGTATTTGGA (site GACCAATCTAA) | 0
CGCTTTGCATGGACCGGTTTTCCCGGTAATCCGTATTTGGT (site CGCTTTGCTAC) | 1.08
GCTAGAACATGGACCGGTTTTCCCGGTAATCCGTATTTGAG (site CCTAGAACTCT) | 0.439
TGTACAGCATGGACCGGTTTTCCCGGTAATCCGTATTTGAC (site TGTACAGCTGT) | 1.75
TACTTGACATGGACCGGTTTTCCCGGTAATCCGTATTTGTT (site TACTTGACTAA) | 0.00709
AATGTGTCATGGACCGGTTTTCCCGGTAATCCGTATTTGAA (site AATGTGTCTCT) | 0.204
CTTCTATCATGGACCGGTTTTCCCGGTAATCCGTATTTGTA (site CTTCTATCTTA) | 1.62
CCTTAGACATGGACCGGTTTTCCCGGTAATCCGTATTTGAG (site CGTTAGACTCT) | 0.0159
CACTGCTCATGGACCGGTTTTCCCGGTAATCCGTATTTGAA (site CAGTGCTCTTT) | 0.00554
GGTGCTGCATGGACCGGTTTTCCCGGTAATCCGTATTTGTG (site GGTGCTGCTCA) | 0.0597
